Read-outs that look alike come from different tables or passages of the source. Values belong to the compound of their own block, whether it stands above or below them.
Target: T1, HIV-1 protease (Human immunodeficiency virus type 1 group M subtype B, UniProt P04585)
T1 construct: The protease (or proteinase), consisting of only 99 amino acids, is among the smallest enzymes known
Experiment: In vitro HIV protease inhibitory assay (HIV Protease FITC Assay)
Assay type: biochemical
Method in brief: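 Biotin/FITC-labelled peptide substrate cleaved by HIV-1 protease for 1 h at room temperature in the dark, in 0.1 M sodium acetate pH 5.5, 1.0 M NaCl, 0.05% NP-40. Uncleaved substrate captured on avidin beads and separated by filtration; fluorescence gave % inhibition.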

[1] = HIV-1 Dose 0.123 uM, read-out: HIV-1 Protease % Inhib
[2] = HIV-1 Dose 0.370 uM, read-out: HIV-1 Protease % Inhib
[3] = HIV-1 Dose 1.100 uM, read-out: HIV-1 Protease % Inhib
[4] = HIV-1 Dose 3.300 uM, read-out: HIV-1 Protease % Inhib
[5] = HIV-1 Dose 10.000 uM, read-out: HIV-1 Protease % Inhib
[6] = HIV-1 Dose 30.000 uM, read-out: HIV-1 Protease % Inhib
[7] = read-out: HIV-1 Protease % Inhib

SMILES: O=c1oc(CCc2ccc(F)cc2)cc(O)c1C(c1ccccc1)C1CC1 (stereo not drawn) [Example 165, 3-(α-cyclopropylbenzyl)-4-hydroxy-6-(p-fluorophenethyl)-2H-pyran-2-one]
- inhibition at 0.123 µM [1]: < 10%
- inhibition at 0.37 µM [2]: 10.5%
- inhibition at 1.1 µM [3]: 32.9%
- inhibition at 3.3 µM [4]: 60%
- inhibition at 10 µM [5]: 80.7%
- inhibition at 30 µM [6]: 94.1%

SMILES: O=c1oc(CCc2ccc(Cl)cc2)cc(O)c1C(c1ccccc1)C1CC1 (stereo not drawn) [Example 166, 3-(α-cyclopropylbenzyl)-4-hydroxy-6-(p-chlorophenethyl)-2H-pyran-2-one]
- inhibition at 0.123 µM [1]: < 10%
- inhibition at 0.37 µM [2]: < 10%
- inhibition at 1.1 µM [3]: < 10%
- inhibition at 3.3 µM [4]: 39.8%
- inhibition at 10 µM [5]: 62.3%
- inhibition at 30 µM [6]: 80.9%
- inhibition at 100 µM (HIV-1 Dose 100.000 uM, read-out: HIV-1 Protease % Inhib): 97.8%

SMILES: O=c1oc(CCc2ccc(Br)cc2)cc(O)c1C(c1ccccc1)C1CC1 (stereo not drawn) [Example 167, 3-(α-cyclopropylbenzyl)-4-hydroxy-6-(p-bromophenethyl)-2H-pyran-2-one]
- inhibition at 0.123 µM [1]: < 10%
- inhibition at 0.37 µM [2]: < 10%
- inhibition at 1.1 µM [3]: 18.4%
- inhibition at 3.3 µM [4]: 37.1%
- inhibition at 10 µM [5]: 60.4%
- inhibition at 30 µM [6]: 81.1%

SMILES: C=CC(C1=C(O)CC(Cc2ccccc2)(c2ccccc2)OC1=O)c1ccccc1 (stereo not drawn) [Example 168, 5,6-Dihydro-4-hydroxy-6-phenyl-6-(phenylmethyl)-3-(1-phenyl-2-propenyl)-2H-pyran-2-one]
- inhibition at 0.123 µM [1]: < 10%
- inhibition at 0.37 µM [2]: < 10%
- inhibition at 1.1 µM [3]: < 10%
- inhibition at 3.3 µM [4]: 10.4%
- inhibition at 10 µM [5]: 43.4%
- inhibition at 30 µM [6]: 48%

SMILES: CCC(C1=C(O)CC(Cc2ccccc2)(c2ccccc2)OC1=O)c1ccccc1 (stereo not drawn) [Example 169, 5,6-Dihydro-4-hydroxy-6-phenyl-6-(phenylmethyl)-3-(1-phenylpropyl)-2H-pyran-2-one]
- inhibition at 0.123 µM [7]: < 10%
- inhibition at 0.37 µM [7]: < 10%
- inhibition at 1.1 µM [7]: < 10%
- inhibition at 3.3 µM [7]: < 10%
- inhibition at 10 µM [7]: 33.2%
- inhibition at 30 µM [7]: 54.8%

SMILES: CCCC1(CCc2ccccc2)CC(O)=C(C(/C=C/c2ccccc2)c2ccccc2)C(=O)O1 (stereo not drawn) [Example 170, 3-(1,3-Diphenyl-2-propenyl)-5,6-dihydro-4-hydroxy-6-(2-phenylethyl)-6-propyl-, (E)-2H-pyran-2-one]
- Ki (read-out: HIV-1 FITC Ki): 50 nM
- inhibition at 0.123 µM [7]: < 10%
- inhibition at 0.37 µM [7]: 29.6%
- inhibition at 1.1 µM [7]: 62.1%
- inhibition at 3.3 µM [7]: 86.7%
- inhibition at 10 µM [7]: 95.1%
- inhibition at 30 µM [7]: 93%

SMILES: CCCC1(CCc2ccccc2)CC(O)=C(C(CCc2ccccc2)c2ccccc2)C(=O)O1 (stereo not drawn) [Example 171, 3-(1,3-Diphenylpropyl)-5,6-dihydro-4-hydroxy-6-(2-phenylethyl)-6-propyl-, 2H-pyran-2-one]
- Ki (read-out: HIV-1 FITC Ki): 50 nM
- inhibition at 0.123 µM [7]: 11.8%
- inhibition at 0.37 µM [7]: 39.5%
- inhibition at 1.1 µM [7]: 68.9%
- inhibition at 3.3 µM [7]: 82.2%
- inhibition at 10 µM [7]: 96.8%
- inhibition at 30 µM [7]: 94.6%

SMILES: O=C1OC(Cc2ccccc2)(c2ccccc2)CC(O)=C1C(/C=C/c1ccccc1)c1ccccc1 (stereo not drawn) [Example 172, 3-(1,3-Diphenyl-2-propenyl)-5,6-dihydro-4-hydroxy-6-phenyl-6-(phenylmethyl)-2H-pyran-2-one]
- inhibition at 0.123 µM [1]: < 10%
- inhibition at 0.37 µM [2]: < 10%
- inhibition at 1.1 µM [3]: 11.7%
- inhibition at 3.3 µM [4]: 29.5%
- inhibition at 10 µM [5]: 56.8%
- inhibition at 30 µM [6]: 60.6%

SMILES: CCCC1(CCc2ccccc2)CC(O)=C(/C(=C/c2ccccc2)c2ccccc2)C(=O)O1 (stereo not drawn) [Example 173, 3-(1,2-Diphenylethenyl)-5,6-dihydro-4-hydroxy-6-(2-phenylethyl)-6-propyl-, (E)-2H-pyran-2-one]
- inhibition at 0.123 µM [1]: < 10%
- inhibition at 0.37 µM [2]: < 10%
- inhibition at 3.3 µM [4]: < 10%
- inhibition at 10 µM [5]: 39.2%
- inhibition at 30 µM [6]: 58.8%

SMILES: C=CC(C1=C(O)CC(CCC)(CCc2ccccc2)OC1=O)c1ccccc1 (stereo not drawn) [Example 174, 5,6-Dihydro-4-hydroxy-6-(2-phenylethyl)-3-(1-phenyl-2-propenyl)-6-propyl-2H-pyran-2-one]
- inhibition at 0.123 µM [1]: 23.5%
- inhibition at 0.37 µM [2]: 52.8%
- inhibition at 1.1 µM [3]: 81.8%
- inhibition at 3.3 µM [4]: 102%
- inhibition at 10 µM [5]: 110%
- inhibition at 30 µM [6]: 106%
- Ki (read-out: HIV-1 FITC Ki): 16 nM

SMILES: CCCC1(CCc2ccccc2)CC(O)=C(C(CC)c2ccccc2)C(=O)O1 (stereo not drawn) [Example 175, 5,6-Dihydro-4-hydroxy-6-(2-phenylethyl)-3-(1-phenylpropyl)-6-propyl-2H-pyran-2-one]
- Ki: 35 nM
- inhibition at 0.123 µM [7]: 19.7%
- inhibition at 0.37 µM [7]: 46.7%
- inhibition at 1.1 µM [7]: 78.8%
- inhibition at 3.3 µM [7]: 99.3%
- inhibition at 10 µM [7]: 107%
- inhibition at 30 µM [7]: 105%

SMILES: CCCC1(Cc2ccccc2)CC(O)=C(C(C=Cc2ccccc2)c2ccccc2)C(=O)O1 (stereo not drawn) [Example 176, 3-(1,3-Diphenyl-2-propenyl)-5,6-dihydro-4-hydroxy-6-(phenylmethyl)-6-propyl-2H-pyran-2-one]
- inhibition at 0.123 µM [1]: < 10%
- inhibition at 0.37 µM [2]: < 10%
- inhibition at 1.1 µM [3]: 28.9%
- inhibition at 3.3 µM [4]: 62.3%
- inhibition at 10 µM [5]: 88.7%
- inhibition at 30 µM [6]: 101%

SMILES: CCCC1(Cc2ccccc2)CC(O)=C(C(CCc2ccccc2)c2ccccc2)C(=O)O1 (stereo not drawn) [Example 177, 3-(1,3-Diphenylpropyl)-5,6-dihydro-4-hydroxy-6-(phenylmethyl)-6-propyl-2H-pyran-2-one]
- inhibition at 0.123 µM [1]: < 10%
- inhibition at 0.37 µM [2]: 19.7%
- inhibition at 1.1 µM [3]: 48.2%
- inhibition at 3.3 µM [4]: 74.2%
- inhibition at 10 µM [5]: 89.3%
- inhibition at 30 µM [6]: 95%

SMILES: CCC(Cc1ccccc1)c1cc(O)c(C(c2cccc(NS(=O)(=O)c3ccccc3)c2)C2CC2)c(=O)o1 (stereo not drawn) [Example 178, 3-(α-Cyclopropyl-meta-(phenylsulfonylamino)benzyl)-6-(α-ethylphenethyl)-4-hydroxy-2H-pyran-2-one]
- inhibition at 0.123 µM [1]: 21.6%
- inhibition at 0.37 µM [2]: 61.9%
- inhibition at 1.1 µM [3]: 83.1%
- inhibition at 3.3 µM [4]: 95.5%
- inhibition at 10 µM [5]: 104%
- inhibition at 30 µM [6]: 107%
- Ki (read-out: HIV-1 FITC Ki): 17.4 nM

SMILES: CCCS(=O)(=O)Nc1cccc(C(c2c(O)cc(C(CC)Cc3ccccc3)oc2=O)C2CC2)c1 (stereo not drawn) [Example 179, 3-(α-Cyclopropyl-meta-(propylsulfonylamino)benzyl)-6-(α-etylphenethyl)-4-hydroxy-2H-pyran-2-one]
- inhibition at 0.123 µM [1]: 23.7%
- inhibition at 0.37 µM [2]: 61.9%
- inhibition at 1.1 µM [3]: 77.9%
- inhibition at 3.3 µM [4]: 94.4%
- inhibition at 10 µM [5]: 95.1%
- inhibition at 30 µM [6]: 102%
- Ki (read-out: HIV-1 FITC Ki): 40 nM

SMILES: CCC(Cc1ccccc1)c1cc(O)c(C(c2cccc(NS(=O)(=O)/C=C/c3ccccc3)c2)C2CC2)c(=O)o1 (stereo not drawn) [Example 180, 3-(α-Cyclopropyl-meta-((E)-2-phenylethenylsulfonylamino)benzyl)-6-(α-ethylphenethyl)-4-hydroxy-2H-pyran-2-one]
- inhibition at 0.123 µM [1]: 32%
- inhibition at 0.37 µM [2]: 55.9%
- inhibition at 1.1 µM [3]: 80.5%
- inhibition at 3.3 µM [4]: 91.9%
- inhibition at 10 µM [5]: 99.5%
- inhibition at 30 µM [6]: 98%
- Ki (read-out: HIV-1 FITC Ki): 23.3 nM

SMILES: CCC(Cc1ccccc1)c1cc(O)c(C(c2cccc(NS(=O)(=O)c3ccc(Br)cc3)c2)C2CC2)c(=O)o1 (stereo not drawn) [Example 181, 3-(α-Cyclopropyl-meta-(4-bromophenylsulfonylamino)benzyl)-6-(α-ethylphenethyl)-4-hydroxy-2H-pyran-2-one]
- inhibition at 0.123 µM [1]: 32.6%
- inhibition at 0.37 µM [2]: 64.5%
- inhibition at 1.1 µM [3]: 82.4%
- inhibition at 3.3 µM [4]: 95.3%
- inhibition at 10 µM [5]: 101%
- inhibition at 30 µM [6]: 95.5%
- Ki (read-out: HIV-1 FITC Ki): 18.9 nM

SMILES: CCC(Cc1ccccc1)c1cc(O)c(C(c2cccc(NS(=O)(=O)c3cc(Cl)ccc3Cl)c2)C2CC2)c(=O)o1 (stereo not drawn) [Example 182, 3-(α-Cyclopropyl-meta-(2,5-dichlorophenylsulfonylamino)benzyl)-6-(α-ethylphenethyl)-4-hydroxy-2H-pyran-2-one]
- inhibition at 0.123 µM [1]: < 10%
- inhibition at 0.37 µM [2]: 15%
- inhibition at 1.1 µM [3]: 45.7%
- inhibition at 3.3 µM [4]: 71.9%
- inhibition at 10 µM [5]: 94.9%
- inhibition at 30 µM [6]: 96.5%

SMILES: CCC(Cc1ccccc1)c1cc(O)c(C(c2cccc(NS(=O)(=O)c3ccc(C(C)(C)C)cc3)c2)C2CC2)c(=O)o1 (stereo not drawn) [Example 183, 3-(α-Cyclopropyl-meta-(4-tert-butylphenylsulfonylamino)benzyl)-6-(α-ethylphenethyl)-4-hydroxy-2H-pyran-2-one]
- inhibition at 0.123 µM [1]: < 10%
- inhibition at 0.37 µM [2]: 11.9%
- inhibition at 1.1 µM [3]: 28.2%
- inhibition at 3.3 µM [4]: 60.6%
- inhibition at 10 µM [5]: 88.9%
- inhibition at 30 µM [6]: 90.8%

- inhibition at 0.123 µM [1]: 65%
- inhibition at 0.37 µM [2]: 87%
- inhibition at 1.1 µM [3]: 94.5%
- inhibition at 3.3 µM [4]: 99%
- inhibition at 10 µM [5]: 102%
- inhibition at 30 µM [6]: 102%
- Ki (read-out: HIV-1 FITC Ki): 5.7 nM
SMILES: CCC(Cc1ccccc1)c1cc(O)c(C(c2cccc(NS(=O)(=O)c3ccc(C#N)cc3)c2)C2CC2)c(=O)o1 (stereo not drawn) [Example 184, 3-(α-Cyclopropyl-meta-(4-cyanophenylsulfonylamino)benzyl)-6-(α-ethylphenethyl)-4-hydroxy-2H-pyran-2-one]

SMILES: CCC(Cc1ccccc1)c1cc(O)c(C(c2cccc(NS(=O)(=O)c3ccc(OC)cc3)c2)C2CC2)c(=O)o1 (stereo not drawn) [Example 185, 3-(α-Cyclopropyl-meta-(4-methoxyphenylsulfonylamino)benzyl)-6-(α-ethylphenethyl)-4-hydroxy-2H-pyran-2-one]
- inhibition at 0.123 µM [1]: 40.5%
- inhibition at 0.37 µM [2]: 71.4%
- inhibition at 1.1 µM [3]: 89.1%
- inhibition at 3.3 µM [4]: 95.9%
- inhibition at 10 µM [5]: 103%
- inhibition at 30 µM [6]: 92.9%
